In ChEMBL document CHEMBL3046337, “Activity landscape analysis, CoMFA and CoMSIA studies of pyrazole CB1 antagonists” (Med Chem Res, 2013):
pKi: −log10 of the molar value.

Target: Cannabinoid receptor 1 (Homo sapiens, UniProt P21554)
Experiment: Antagonist activity at CB1 receptor (unknown origin)

Cannabinoid receptor 1, sequence (P21554 whole entry): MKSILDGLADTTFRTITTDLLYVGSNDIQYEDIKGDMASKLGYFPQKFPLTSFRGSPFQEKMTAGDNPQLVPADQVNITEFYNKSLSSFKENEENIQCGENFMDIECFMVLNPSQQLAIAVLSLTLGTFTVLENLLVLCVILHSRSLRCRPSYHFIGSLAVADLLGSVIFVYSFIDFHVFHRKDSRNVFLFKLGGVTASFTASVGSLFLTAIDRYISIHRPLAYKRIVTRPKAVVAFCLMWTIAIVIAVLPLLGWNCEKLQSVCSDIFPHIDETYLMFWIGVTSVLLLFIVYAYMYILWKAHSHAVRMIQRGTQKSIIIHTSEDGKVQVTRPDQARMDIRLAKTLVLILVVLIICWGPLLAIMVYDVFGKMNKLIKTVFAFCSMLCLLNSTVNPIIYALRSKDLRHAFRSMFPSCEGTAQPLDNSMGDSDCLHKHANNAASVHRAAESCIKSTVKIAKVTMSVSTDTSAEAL

| SMILES | pKi |
| --- | --- |
| CCCn1nc(C(=O)NN2CCCCC2)c(C)c1-c1ccccc1 | 5.45 |
| CCCCCCCn1nc(C(=O)NN2CCCCC2)c(C)c1-c1ccccc1 | 6.69 |
| Cc1c(NC(=O)N2CCCCC2)nn(-c2ccc(Cl)cc2Cl)c1-c1ccc(Br)cc1 | 7.33 |
| Cc1c(C(=O)NN2CCCCC2)nn(-c2ccc(Cl)cc2Cl)c1-c1ccc(N)cc1 | 7.09 |
| O=C(NN1CCCCC1)c1nn(-c2ccc(Cl)cc2Cl)c2c1CCCc1cc([N+](=O)[O-])ccc1-2 | 7.20 |
| Cc1c(C(=O)Nc2ccc(-c3ccsc3)cc2)nn(CCCCCCl)c1-c1ccccc1 | 7.70 |
| CCCCCn1nc(C(=O)NN2CCCCC2)cc1-c1ccccc1 | 6.59 |
| Cc1c(C(=O)NN)nn(-c2ccc(Cl)cc2Cl)c1-c1ccc(Cl)cc1 | 6.43 |
| COc1ccc(-c2c(F)c(C(=O)NN3CCCCC3)nn2-c2ccc(Cl)cc2Cl)cc1 | 7.74 |
| Cc1c(C(=O)NCC23CC4CC(CC(C4)C2)C3)nn(CCCCCCl)c1-c1ccccc1 | 8.22 |
| COCc1c(C(=O)NC2CCCCC2)nn(-c2ccc(Cl)cc2Cl)c1C1C2(C)CCC(C2)C1(C)C (stereo not drawn) | 6.62 |
| Cc1c(C(=O)NCCO)nn(-c2ccc(Cl)cc2Cl)c1-c1ccc(Br)cc1 | 5.95 |
| Cc1c(C(=O)NN2CCCCC2)nn(C2CCCCC2)c1-c1ccccc1 | 6.22 |
| CCCCCn1nc(C(=O)NN2CCCCC2)c(C)c1-c1ccc(Br)cc1 | 7.09 |
| CCCCCCCn1nc(C(=O)NN2CCCCC2)cc1-c1ccccc1 | 6.49 |
| Cc1ccc(Cn2nc(C(=O)NC3CC4CCC3(C)C4(C)C)c(C)c2-c2ccc(Cl)c(C)c2)cc1 (stereo not drawn) | 6.40 |
| Cc1c(C(=O)NN2CCCCC2)nn(-c2ccc(Cl)cc2Cl)c1-c1ccc(Br)cc1 | 7.12 |
| O=C(NN1CCCCC1)c1nn(-c2ccc(Cl)cc2Cl)c2c1CCCc1c-2cccc1[N+](=O)[O-] | 7.00 |
| Cc1c(C(=O)N(C)c2ccccc2)nn(-c2ccc(Cl)cc2Cl)c1-c1ccc(Br)cc1 | 7.51 |
| Cc1c(C(=O)NN2CCOCC2)nn(-c2ccc(Cl)cc2Cl)c1-c1ccc(I)cc1 | 7.88 |
| Cc1c(C(=O)NN2CCCCC2)nn(C)c1-c1ccc(Cl)cc1 | 4.46 |
| O=C(NC1CCCCC1)c1nn(-c2ccc(Cl)cc2Cl)c(-c2ccc(Br)cc2)c1CO | 8.22 |
| Cc1c(C(=O)NN2CCOCC2)nn(-c2ccc(Cl)cc2Cl)c1-c1ccccc1Br | 7.93 |
